Reference: patent US9314026B2, “Heterocyclylpyri(mi)dinylpyrazole” (Bayer Intellectual Property GmbH, priority 2011, dated 2016)
Like-named read-outs stand apart in the source and are kept apart here.

Assays:
Alternaria solani = assay: Alternaria test (tomato)/preventive; type: in vivo; conditions: 168 h, 500 ppm of active ingredient, preventive, evaluated 7 days after inoculation, read-out: efficacy
Procedure: Alternaria Test (Tomato)/Preventive Solvent: 49 parts by weight of N,N-Dimethylformamide Emulsifier: 1 part by weight of Alkylarylpolyglycolether To produce a suitable preparation of active compound, 1 part by weight of active compound is mixed with the stated amounts of solvent and emulsifier, and the concentrate is diluted with water to the desired concentration. To test for preventive activity, young plants are sprayed with the preparation of active compound at the stated rate of application. One day after this treatment, the plants are inoculated with an aqueous spore suspension of Alternaria solani. […] Then the plants are placed in an incubation cabinet at approximately 20° C. and a relative atmospheric humidity of 96%.

Pyrenophora teres = assay: Pyrenophora test (barley)/preventive; type: in vivo; conditions: 500 ppm of active ingredient, preventive, evaluated 7-9 days after inoculation, read-out: efficacy
Procedure: (§1) Pyrenophora Test (Barley)/Preventive Solvent: 49 parts by weight of N,N-Dimethylformamide Emulsifier: 1 part by weight of Alkylarylpolyglycolether To produce a suitable preparation of active compound, 1 part by weight of active compound is mixed with the stated amounts of solvent and emulsifier, and the concentrate is diluted with water to the desired concentration. To test for preventive activity, young plants are sprayed with the preparation of active compound at the stated rate of application. One day after this treatment, the plants are inoculated with an aqueous spore suspension of Pyrenophora teres.

Leptosphaeria nodorum = assay: Leptosphaeria test (wheat)/preventive; type: in vivo; conditions: Parastagonospora nodorum, 500 ppm of active ingredient, preventive, evaluated 7-9 days after inoculation, read-out: efficacy
Procedure: as §1, with “Leptosphaeria Test (Wheat)/Preventive” for “Pyrenophora Test (Barley)/Preventive”, “Leptosphaeria Test (Wheat)/Preventive Solvent: 49” for “Pyrenophora Test (Barley)/Preventive Solvent: 49”, “sprayed with a preparation of” for “sprayed with the preparation of”, “suspension of Leptosphaeria nodorum.” for “suspension of Pyrenophora teres.”

[1] = determination of the log P values by HPLC on a reverse phase column (C18), EEC-Directive 79/831 Annex V.A8; type: physicochemical
Procedure: Method A Note on the determination of the log P values and mass detection: The stated log P values were determined in accordance with EEC-Directive 79/831 Annex V.A8 by HPLC (High Performance Liquid Chromatography) on a reverse phase column (C18). […] The mass detection was effected with an […] system. Method B Note on the determination of the log P values and mass detection: The stated log P values were determined in accordance with EEC-Directive 79/831 Annex V.A8 by HPLC (High Performance Liquid Chromatography) on a reverse phase column (C18). […] The mass detection was effected with the Micronass ZQ2000 mass detector from Waters. Method C Note on the determination of the log P values and mass detection: The stated log P values were determined in accordance with EEC-Directive 79/831 Annex V.A8 by UPLC (Ultra Performance Liquid Chromatography) on a reverse phase column (C18). […] The mass detection was effected with the LCT Premier or SQD mass detector from Waters.

Sphaerotheca fuliginea = assay: Sphaerotheca test (cucumber)/preventive; type: in vivo; conditions: Podosphaera fuliginea, 168 h, 500 ppm of active ingredient, preventive, evaluated 7 days after inoculation, 0% = untreated control, 100% = no disease, read-out: efficacy
Procedure: as §1, with “Sphaerotheca” for “Pyrenophora”, “(Cucumber)/Preventive” for “(Barley)/Preventive”, “Sphaerotheca fuliginea.” for “Pyrenophora teres.”

CC(C)CC(=O)N(C(=O)CC(C)C)c1cc(-c2c(-c3ccc(F)cc3)nn3c2CCOC3C)ccn1 (stereo not drawn) [Example 13, N-{4-[2-(4-fluorophenyl)-7-methyl-4,5-dihydropyrazolo[1,5-c][1,3]oxazin-3-yl]pyridin-2-yl}-3-methyl-N-(3-methylbutanoyl)butanamide]
pest or weed control at 500 ppm (Alternaria solani): 78% | pest or weed control at 500 ppm (Pyrenophora teres): 89% | pest or weed control at 500 ppm (Leptosphaeria nodorum): 89% | chromatographic logP [1]: 5.01 | pest or weed control at 500 ppm (Sphaerotheca fuliginea): 93%

CCC(=S)Nc1cc(-c2c(-c3ccc(F)cc3)nn3c2CCC3)ccn1 [[XI-9], N-{4-[2-(4-fluorophenyl)-5,6-dihydro-4H-pyrrolo[1,2-b]pyrazol-3-yl]pyridin-2-yl}propanethioamide]
chromatographic logP ([1]; pH 2.3): 2.74

CCC(=O)Nc1cc(-c2c(-c3ccc(F)c(F)c3)nn3c2CCC3)ccn1 [[XI-10], N-{4-[2-(3,4-difluorophenyl)-5,6-dihydro-4H-pyrrolo[1,2-b]pyrazol-3-yl]pyridin-2-yl}propanamide]
chromatographic logP ([1]; pH 2.3): 1.93

CC1CCn2nc(-c3ccccc3)c(-c3ccnc(NC(=O)CC4CC4)c3)c21 (stereo not drawn) [[XI-11], 2-cyclopropyl-N-[4-(4-methyl-2-phenyl-5,6-dihydro-4H-pyrrolo[1,2-b]pyrazol-3-yl)pyridin-2-yl]acetamide]
chromatographic logP ([1]; pH 2.3): 2.32

CCC(=O)Nc1cc(-c2c(-c3csc(Cl)c3)nn3c2CCC3)ccn1 [[XI-12], N-{4-[2-(5-chloro-3-thienyl)-5,6-dihydro-4H-pyrrolo[1,2-b]pyrazol-3-yl]pyridin-2-yl}propanamide]
chromatographic logP ([1]; pH 2.3): 1.95

O=C(CC1CC1)Nc1cc(-c2c(-c3ccc(F)cc3)nn3c2CCC3)ccn1 [[XI-13], 2-cyclopropyl-N-{4-[2-(4-fluorophenyl)-5,6-dihydro-4H-pyrrolo[1,2-b]pyrazol-3-yl]pyridin-2-yl}acetamide]
chromatographic logP ([1]; pH 2.3): 2.08

O=C(Nc1cc(-c2c(-c3ccc(F)cc3)nn3c2CCC3)ccn1)C1CCC1 [[XI-14], N-{4-[2-(4-fluorophenyl)-5,6-dihydro-4H-pyrrolo[1,2-b]pyrazol-3-yl]pyridin-2-yl}cyclobutanecarboxamide]
chromatographic logP ([1]; pH 2.3): 2.08

CC(C)CC(=O)Nc1cc(-c2c(-c3ccc(F)cc3)nn3c2CCC3)ccn1 [[XI-15], N-{4-[2-(4-fluorophenyl)-5,6-dihydro-4H-pyrrolo[1,2-b]pyrazol-3-yl]pyridin-2-yl}-3-methylbutanamide]
chromatographic logP ([1]; pH 2.3): 2.2

CCC(=O)Nc1cc(-c2c(-c3ccc(F)cc3)nn3c2CCC3CC)ccn1 (stereo not drawn) [[XI-16], N-{4-[6-ethyl-2-(4-fluorophenyl)-5,6-dihydro-4H-pyrrolo[1,2-b]pyrazol-3-yl]pyridin-2-yl}propanamide]
chromatographic logP ([1]; pH 2.3): 2.3

CCC(C)C(=O)Nc1cc(-c2c(-c3ccc(F)cc3)nn3c2CCC3)ccn1 (stereo not drawn) [[XI-17], N-{4-[2-(4-fluorophenyl)-5,6-dihydro-4H-pyrrolo[1,2-b]pyrazol-3-yl]pyridin-2-yl}-2-methylbutanamide]
chromatographic logP ([1]; pH 2.3): 2.23

COCC(=O)Nc1cc(-c2c(-c3ccc(F)cc3)nn3c2CC(C)C3)ccn1 (stereo not drawn) [[XI-18], N-{4-[2-(4-fluorophenyl)-5-methyl-5,6-dihydro-4H-pyrrolo[1,2-b]pyrazol-3-yl]pyridin-2-yl}-2-methoxyacetamide]
chromatographic logP ([1]; pH 2.3): 2.3

CCC(=O)Nc1cc(-c2c(-c3ccc(F)cc3)nn3c2C(OC)CC3)ccn1 (stereo not drawn) [[XI-19], N-{4-[2-(4-fluorophenyl)-4-methoxy-5,6-dihydro-4H-pyrrolo[1,2-b]pyrazol-3-yl]pyridin-2-yl}propanamide]
chromatographic logP ([1]; pH 2.3): 1.72

O=C(Nc1cc(-c2c(-c3csc(Cl)c3)nn3c2CCC3)ccn1)C1CC1 [[XI-20], N-{4-[2-(5-chloro-3-thienyl)-5,6-dihydro-4H-pyrrolo[1,2-b]pyrazol-3-yl]pyridin-2-yl}cyclopropanecarboxamide]
chromatographic logP ([1]; pH 2.3): 2.02

CC(C)C(=O)Nc1cc(-c2c(-c3csc(Cl)c3)nn3c2CCC3)ccn1 [[XI-21], N-{4-[2-(5-chloro-3-thienyl)-5,6-dihydro-4H-pyrrolo[1,2-b]pyrazol-3-yl]pyridin-2-yl}-2-methylpropanamide]
chromatographic logP ([1]; pH 2.3): 2.24

CC1Cc2c(-c3ccnc(NC(=O)CC4CC4)c3)c(-c3ccc(F)cc3)nn2C1 (stereo not drawn) [[XI-22], 2-cyclopropyl-N-{4-[2-(4-fluorophenyl)-5-methyl-5,6-dihydro-4H-pyrrolo[1,2-b]pyrazol-3-yl]pyridin-2-yl}acetamide]
chromatographic logP ([1]; pH 2.3): 2.36

CC1OCCc2c(-c3ccnc(NC(=O)C4CC4)c3)c(-c3ccc(F)cc3)nn21 (stereo not drawn) [[XI-23], N-{4-[2-(4-fluorophenyl)-7-methyl-4,5-dihydropyrazolo[1,5-c][1,3]oxazin-3-yl]pyridin-2-yl}cyclopropanecarboxamide]
chromatographic logP ([1]; pH 2.3): 2.33

O=C(Nc1cc(-c2c(-c3ccc(F)cc3)nn3c2CCC3)ccn1)C1CCOC1 (stereo not drawn) [[XI-24], N-{4-[2-(4-fluorophenyl)-5,6-dihydro-4H-pyrrolo[1,2-b]pyrazol-3-yl]pyridin-2-yl}tetrahydrofuran-3-carboxamide]
chromatographic logP ([1]; pH 2.3): 1.69

O=C(CC1CC1)Nc1cc(-c2c(-c3csc(Cl)c3)nn3c2CCC3)ccn1 [[XI-25], N-{4-[2-(5-chloro-3-thienyl)-5,6-dihydro-4H-pyrrolo[1,2-b]pyrazol-3-yl]pyridin-2-yl}-2-cyclopropylacetamide]
chromatographic logP ([1]; pH 2.3): 2.4

CCC1CCc2c(-c3ccnc(NC(=O)CC4CC4)c3)c(-c3ccc(F)cc3)nn21 (stereo not drawn) [[XI-26], 2-cyclopropyl-N-{4-[6-ethyl-2-(4-fluorophenyl)-5,6-dihydro-4H-pyrrolo[1,2-b]pyrazol-3-yl]pyridin-2-yl}acetamide]
chromatographic logP ([1]; pH 2.3): 2.81

O=C(Nc1cc(-c2c(-c3ccc(F)cc3)nn3c2CCC3)ccn1)C1CCOCC1 [[XI-27], N-{4-[2-(4-fluorophenyl)-5,6-dihydro-4H-pyrrolo[1,2-b]pyrazol-3-yl]pyridin-2-yl}tetrahydro-2H-pyran-4-carboxamide]
chromatographic logP ([1]; pH 2.3): 1.77

O=C(CCc1ccccc1)Nc1cc(-c2c(-c3ccc(F)cc3)nn3c2CCC3)ccn1 [[XI-28], N-{4-[2-(4-fluorophenyl)-5,6-dihydro-4H-pyrrolo[1,2-b]pyrazol-3-yl]pyridin-2-yl}-3-phenylpropanamide]
chromatographic logP ([1]; pH 2.3): 2.62

O=C(CCCCO)CC(=O)c1ccc(F)cc1 [[XIII-4], 1-(4-fluorophenyl)-7-hydroxyheptane-1,3-dione]
chromatographic logP ([1]; pH 2.7): 2.3

OCCCc1cc(-c2ccc(F)cc2)n[nH]1 [[XIV-1], 3-[3-(4-fluorophenyl)-1H-pyrazol-5-yl]propan-1-ol]
chromatographic logP ([1]; pH 2.3): 1.5 | chromatographic logP ([1]; pH 2.7): 1.51

OCCCc1cc(-c2ccc(F)c(F)c2)n[nH]1 [[XIV-2], 3-[3-(3,4-difluorophenyl)-1H-pyrazol-5-yl]propan-1-ol]
chromatographic logP ([1]; pH 2.3): 1.73 | chromatographic logP ([1]; pH 2.7): 1.73

OCCCc1cc(-c2ccc(F)c(Cl)c2)n[nH]1 [[XIV-3], 3-[3-(3-chloro-4-fluorophenyl)-1H-pyrazol-5-yl]propan-1-ol]
chromatographic logP ([1]; pH 2.3): 1.97 | chromatographic logP ([1]; pH 2.7): 1.96

OCCCCc1cc(-c2ccc(F)cc2)n[nH]1 [[XIV-4], 4-[3-(4-fluorophenyl)-1H-pyrazol-5-yl]butan-1-ol]
chromatographic logP ([1]; pH 2.3): 1.72 | chromatographic logP ([1]; pH 2.7): 1.72

CC(CCO)c1cc(-c2ccc(F)cc2)n[nH]1 (stereo not drawn) [[XIV-5], 3-[3-(4-fluorophenyl)-1H-pyrazol-5-yl]butan-1-ol]
chromatographic logP ([1]; pH 2.3): 1.74 | chromatographic logP ([1]; pH 2.7): 1.74
